B1: GST-MATR3(2-151) (other)
chain: SKSFQQSSLSRDSQGHGRDLSAAGIGLLAAATQSLSMPASLGRMNQGTARLASLMNLGMSSSLNQQGAHSALSSASTSSHNLQSIFNIGSRGPLPLSSQHRGDADQASNILASFGLSARDLDELSRYPEDKITPENLPQILLQLKRRRTE
notes: not shown: GST tag and thrombin site of vector pGEX-2tk

Key:
DUX4 dbd = target: T1, DUX4 dbd (Homo sapiens, UniProt Q9UBX2); test: His pull-down assay; assay type: binding; conditions: purified His-DUX4 dbd immobilized, biotinylated MATR3 peptides
T1 construct: employing pETGB1-6xHis-DUX4 dbd (residues 1-159) vector as template; GB1; made in house; host or cells: E. coli Rosetta2(DE3) pLys
Experimental: To test the interaction between 6xHis-DUX4 dbd and MATR3 synthetic peptides (prepared by CASLO; Lot No.: P230321-01-01, P230321-01-02, Lot No.: P230321-01-03), 40 pmol of 6xHis-DUX4 dbd were immobilized on His-Select Nickel Affinity gel beads (Sigma) incubating 1 hour on rotation at 4°C in IPP100 buffer (10 mM Tris-HCl pH 8.00, 100 mM NaCl, 0.1% NP-40) supplemented with 0,1 mM PMSF. Next, 4 pmol of MATR3 synthetic peptides were added incubating on rotation for 2 hours at 4°C. MATR3 peptides were incubated with the beads as negative control. Beads were washed 4 times with IPP100 buffer, boiled in 50 µl of Laemmli Sample Buffer (Bio-Rad), centrifuged and the eluted proteins were collected. Samples were stored at -20°C. Pull-down samples were boiled at 95°C for 5 minutes and bounded fractions (10%) were loaded on 15% SDS-Page acrylamide gel. The immunoblotting was performed following the procedure reported above but the wet transfer was performed at 200mA for 1.5 hours (instead of 2 hours) at 4°C. To test the interaction between DUX4 dbd and 6xHis-SUM03-MATR3(210-255), 40 pmol of 6xHis-SUMO3-MATR3(210-255) were immobilized on His-Select Nickel Affinity gel beads (Sigma) incubating 1 hour on rotation at 4°C in IPP100 buffer (10 mM Tris-HCl pH 8.00, 100 mM NaCl, 0.1% NP-40) supplemented with 0,1 mM PMSF. Next, 40 pmol of DUX4(15-155) without tag were added incubating on rotation for 2 hours at 4°C. DUX4(15-155) alone was incubated with the beads as negative control. Beads were washed 4 times with IPP100 buffer, boiled in 50 µl of Laemmli Sample Buffer (Bio-Rad), centrifuged and the eluted proteins were collected. Samples were stored at -20°C. Pull-down samples were boiled at 95°C for 5 minutes and bounded fractions (10%) were loaded on two identical 15% SDS-Page acrylamide gel. The immunoblotting was performed following the procedure reported below.

6xHis-DUX4 dbd = target: T2, 6xHis-DUX4 dbd (UniProt Q9UBX2 1-159); test: GST pull-down with purified recombinant proteins
T2 construct: range 1-159; Expressed in E. coli from pET-GB1 and purified on nickel beads; The limits 1-159 come from the phrase pETGB1-6xHis-DUX4 dbd (residues 1-159); also called DUX4 dbd (HD1+HD2); not shown: 6xHis tag and GB1 solubility peptide of vector pET-GB1
T2 sequence (Q9UBX2 1-159): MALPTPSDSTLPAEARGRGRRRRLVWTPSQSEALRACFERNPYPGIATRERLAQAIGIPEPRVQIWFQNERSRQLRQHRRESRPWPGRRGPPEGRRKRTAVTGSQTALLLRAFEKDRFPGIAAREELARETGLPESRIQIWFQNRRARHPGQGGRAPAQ

T1 sequence (Q9UBX2 1-159): as above

Molecule | interaction with DUX4 dbd (pulldown, synthetic peptides) (DUX4 dbd) | interaction with DUX4 dbd (pulldown, synthetic peptides) (DUX4 dbd; listed as Pep 3) | interaction with DUX4 dbd (pulldown, synthetic peptides) (DUX4 dbd; listed as Pep 2) | binding result (6xHis-DUX4 dbd)
(Biotin)- ERCRDDSFFGETSHNYHKFDSEYERMGRGPG PLQERSLFEKKRGAPPSSNIEDFHGLLPK -NH2 [Peptide 3] | interacted with DUX4 dbd | interact with DUX4 dbd |  | 
(Biotin)- SFDDRGPSLNPVLDYDHGSRSQESGYYDRMD YEDDRLRDGERCRDDSFFGETSHNYHKFDS-NH2 [Peptide 2] | interacted with DUX4 dbd |  | interact with DUX4 dbd | 
B1 |  |  |  | no binding (tested: 40 pmol each)
